Assay results taken from paper PMC10318527, “Utilization of dietary mixed-linkage β-glucans by the Firmicute Blautia producta” (The Journal of Biological Chemistry, 2023).

Experiments:
BoGH16MLG = test system: BoGH16MLG; design: method as in PMID 29141231; details: BoGH16MLG with barley MLG, no unit, cited from earlier work
BPGH16 mutant R331A = experiment: Kinetics of BPGH16 mutant R331A (DNS assay); assay type: biochemical, Blautia producta ATCC 27340
Protocol: The residues R331, L358, E379, D381, E384, W362, and H398 of BpGH16MLG were mutated to Ala by the Q5Site-Directed Mutagenesis Kit (New England Biolabs, UK, catalogue no. E0554S). Wild-type plasmid BpGH16-pET28a(+) was used as a template, and mutagenic forward and reverse primers were developed using NEBaseChanger with subtle modifications (Table S4). A 25 μl PCR cocktail was prepared for mutating each residue. The final concentration of Q5 Hot Start High-Fidelity 2X Master Mix was 1X, each primer was at 0.5 μM, the amount of used template was 20 ng, and the rest of the volume was made up of nuclease-free water. PCR was executed using the following conditions-initial denaturation was performed at 98 °C for 1 min, for each cycle-denaturation, annealing, and extension (72 °C) were set for 10 s, 20 s, and 7 min, respectively. A total of 25 cycles were performed, and the final extension was for 5 min 5 μl PCR products were loaded on 0.8% agarose gel to conform to the amplification of the mutagenic gene. Ligation of PCR products and cleavage of methylated template DNA was then performed using 5 μl KLD reaction buffer and 1 μl KLD enzyme cocktail at RT for 1 h. It was then transformed into E. coli TOP-10 cells and plasmids were isolated. The obtained plasmids were sequenced to confirm the mutation at the desired location. Once mutation was confirmed in a gene, the mutant plasmid was transformed into Rosetta (DE3) cells for protein expression. The mutant protein was then expressed as per the protocol mentioned earlier, and kinetics were performed with barley β-glucan.
(§1) Reactions were performed in 100 μl volume mixture using recombinant enzyme (final concentration at 0.1 mg/ml) in 50 mM sodium phosphate buffer (pH 5.7) at 37 °C for 1 h of incubation. Then, reactions were terminated by boiling for 5 min. Enzymatic assays were determined with 3,5- dinitrosalicylic acid (DNS) assay ([85]). In brief, 0.05 g Na2SO3 and 1 g DNS were mixed in a 50 ml water-containing reagent bottle and stirred about 6 h using a magnetic stirrer. After that, 200 μl phenol was added and made up to 100 ml. A working solution of DNS was prepared by adding 50 μl glucose (20% (w/v) stock) in prepared 100 ml of reagent mixtures and immediately used for experiments without adding NaOH. 80 μl DNS reagent was added to the reaction mixtures and incubated at 100 °C for 10 min, followed by ice-cooling for 10 min. Consequently, recorded the developed color spectrophotometrically at 575 nm ([85]). A standard curve generated by different concentrations of maltose was used for determining released reducing sugars in each case.

BPGH16 mutant E384A = experiment: Kinetics of BPGH16 mutant E384A (DNS assay); assay type: biochemical, Blautia producta ATCC 27340
Protocol: (§2) The residues R331, L358, E379, D381, E384, W362, and H398 of BpGH16MLG were mutated to Ala by the Q5Site-Directed Mutagenesis Kit (New England Biolabs, UK, catalogue no. E0554S). Wild-type plasmid BpGH16-pET28a(+) was used as a template, and mutagenic forward and reverse primers were developed using NEBaseChanger with subtle modifications (Table S4). A 25 μl PCR cocktail was prepared for mutating each residue. The final concentration of Q5 Hot Start High-Fidelity 2X Master Mix was 1X, each primer was at 0.5 μM, the amount of used template was 20 ng, and the rest of the volume was made up of nuclease-free water. PCR was executed using the following conditions-initial denaturation was performed at 98 °C for 1 min, for each cycle-denaturation, annealing, and extension (72 °C) were set for 10 s, 20 s, and 7 min, respectively. […] The mutant protein was then expressed as per the protocol mentioned earlier, and kinetics were performed with barley β-glucan.
(§3) Reactions were performed in 100 μl volume mixture using recombinant enzyme (final concentration at 0.1 mg/ml) in 50 mM sodium phosphate buffer (pH 5.7) at 37 °C for 1 h of incubation. […] Enzymatic assays were determined with 3,5- dinitrosalicylic acid (DNS) assay ([85]). […] Consequently, recorded the developed color spectrophotometrically at 575 nm ([85]). […]

BPGH16 mutant L358A = experiment: Kinetics of BPGH16 mutant L358A (DNS assay); assay type: biochemical, Blautia producta ATCC 27340
Protocol: as §2, §3

R. faecis = experiment: Growth of R. faecis on barley β-glucan; assay type: cell-based, Roseburia faecis; details: minimal medium with 1% barley β-glucan, no BpGH16MLG
Protocol: […] JCM 31261, B. pseudocatenulatum JCM 1200^T, B. adolescentis JCM 1275^T, B. coccoides JCM 1395^T, B. bifidum JCM 1254, and A. caccae JCM 13470^T were used for bacterial mono-culture experiments. […] About 5 μl glycerol stock was initially inoculated to 5 ml of GAM for the primary culture of these strains. […] The experiment was set up on 300 μl flat-bottomed 96-well microtiter plates. Reading was taken every interval of 8 h at 600 nm on a spectrophotometer.

BPGH16 mutant H398A = experiment: Kinetics of BPGH16 mutant H398A (DNS assay); assay type: biochemical, Blautia producta ATCC 27340
Protocol: as §2, §3

BPGH16 mutant E379A = experiment: Kinetics of BPGH16 mutant E379A (DNS assay); assay type: biochemical, Blautia producta ATCC 27340
Protocol: as §2, §3

BpGH16MLG (BPGH16) = experiment: Michaelis-Menten kinetics of BpGH16MLG on β-glucans (DNS assay); assay type: biochemical, Blautia producta ATCC 27340
Protocol: as §1, with “Then,” for “Reactions were performed in 100 μl volume mixture using recombinant enzyme (final concentration at 0.1 mg/ml) in 50 mM sodium phosphate buffer (pH 5.7) at 37 °C for 1 h of incubation. Then,”

B. producta ATCC 27340 = experiment: Growth of B. producta on β-glucans; assay type: cell-based, Blautia producta ATCC 27340; details: minimal medium containing 1% glucan
Protocol: Active culture of B. producta and culture conditions were maintained following the recently reported procedure ([31]). Once B. producta grew, cells were centrifuged, and the obtained supernatant was decanted. A pellet of cells was then washed three times with phosphate-buffered saline (PBS) and washed cells were suspended in 2 ml PBS. […] The growth assessment experiments were performed for 96 h, following our recently established protocol ([82]).

[1] = native BPGH16, DNS assay, pH 5.7, 37 °C

What does the source list for Barley β-glucan?
kcat (BoGH16MLG; in 1/s): 85.8 ± 4.6; Km (BoGH16MLG; in mg/mL): 0.364 ± 0.051; increase in Km (BPGH16 mutant R331A; R331A versus native enzyme): < 2 fold; reduction in kcat (BPGH16 mutant R331A; R331A versus native enzyme): ~1.3 fold; Km (BPGH16 mutant R331A; mutant R331A, DNS assay): 0.35 ± 0.05 mg/mL; kcat (BPGH16 mutant R331A; mutant R331A, DNS assay): 48 ± 0.8 s⁻¹; kcat (BPGH16 mutant E384A): 0 s⁻¹; kcat (BPGH16 mutant L358A): 0 s⁻¹; growth of R. faecis (R. faecis): could not grow; kcat (BPGH16 mutant H398A): 0 s⁻¹; kcat (BPGH16 mutant E379A): 0 s⁻¹; Km (BpGH16MLG (BPGH16); BpGH16MLG with barley MLG, no unit): 0.22 ± 0.04; kcat (BpGH16MLG (BPGH16); BpGH16MLG with barley MLG, no unit, in 1/s): 62 ± 1.23; Km (BpGH16MLG (BPGH16); [1]): 0.22 ± 0.04 mg/mL; kcat (BpGH16MLG (BPGH16); [1]): 62 ± 1.2 s⁻¹; growth of B. producta on the glucan (B. producta ATCC 27340): showed growth; growth of B. producta on the glucan (B. producta ATCC 27340; listed as barley MLG): able to grow
